Activity calls are given as the source filed them. Where a SMILES comes first, the peptide text is derived from it. The star is where a group is joined. Boc = CC(C)(C)OC(=O)*; Bn = c1ccc(C*)cc1; NHNH2 = NN*
Key:
Aminopeptidase N = target: T1, Aminopeptidase N (Plasmodium falciparum FcB1/Columbia, UniProt O96935); test: malaria alanyl aminopeptidase activity blockers – biochemical, fluorogenic H-Leu-NHMec substrate, 1536-well (AID 1445); parameters: species or system Plasmodium falciparum 3D7, 3D7
T1 sequence (O96935 whole entry): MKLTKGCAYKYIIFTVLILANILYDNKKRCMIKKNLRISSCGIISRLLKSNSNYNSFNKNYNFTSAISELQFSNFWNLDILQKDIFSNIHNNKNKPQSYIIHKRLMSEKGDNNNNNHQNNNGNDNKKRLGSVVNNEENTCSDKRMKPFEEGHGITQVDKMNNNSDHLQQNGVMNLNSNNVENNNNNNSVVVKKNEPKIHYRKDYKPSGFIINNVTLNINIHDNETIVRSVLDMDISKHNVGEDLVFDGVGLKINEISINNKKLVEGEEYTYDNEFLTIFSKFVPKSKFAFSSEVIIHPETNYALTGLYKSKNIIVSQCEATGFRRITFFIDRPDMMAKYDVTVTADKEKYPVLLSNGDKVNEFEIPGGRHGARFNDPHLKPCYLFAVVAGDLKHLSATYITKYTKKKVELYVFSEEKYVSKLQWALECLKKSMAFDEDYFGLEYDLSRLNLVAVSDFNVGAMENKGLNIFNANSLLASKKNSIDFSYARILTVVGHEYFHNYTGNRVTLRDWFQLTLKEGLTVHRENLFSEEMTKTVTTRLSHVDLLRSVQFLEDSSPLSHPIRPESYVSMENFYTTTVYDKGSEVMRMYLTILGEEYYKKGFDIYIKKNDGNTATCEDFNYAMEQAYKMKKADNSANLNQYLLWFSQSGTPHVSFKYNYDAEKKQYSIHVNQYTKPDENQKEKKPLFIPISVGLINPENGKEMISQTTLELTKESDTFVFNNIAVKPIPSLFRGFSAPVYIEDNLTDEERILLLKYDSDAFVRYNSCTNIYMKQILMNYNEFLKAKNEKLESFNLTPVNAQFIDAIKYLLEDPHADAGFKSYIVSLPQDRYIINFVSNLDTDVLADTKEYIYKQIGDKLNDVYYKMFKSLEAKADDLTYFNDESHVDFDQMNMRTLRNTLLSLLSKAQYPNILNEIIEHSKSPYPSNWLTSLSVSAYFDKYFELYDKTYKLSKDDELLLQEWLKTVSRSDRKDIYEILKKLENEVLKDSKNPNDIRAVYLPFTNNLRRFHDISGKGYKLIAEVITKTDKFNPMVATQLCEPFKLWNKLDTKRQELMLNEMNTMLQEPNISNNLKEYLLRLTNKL

[1] = target: T2, Voltage-gated N-type calcium channel alpha-1B subunit/Amyloid beta A4 precursor protein-binding family A member 1 (Homo sapiens, UniProt Q00975+Q02410); assay type: protein assay
T2 sequence (Q00975 whole entry): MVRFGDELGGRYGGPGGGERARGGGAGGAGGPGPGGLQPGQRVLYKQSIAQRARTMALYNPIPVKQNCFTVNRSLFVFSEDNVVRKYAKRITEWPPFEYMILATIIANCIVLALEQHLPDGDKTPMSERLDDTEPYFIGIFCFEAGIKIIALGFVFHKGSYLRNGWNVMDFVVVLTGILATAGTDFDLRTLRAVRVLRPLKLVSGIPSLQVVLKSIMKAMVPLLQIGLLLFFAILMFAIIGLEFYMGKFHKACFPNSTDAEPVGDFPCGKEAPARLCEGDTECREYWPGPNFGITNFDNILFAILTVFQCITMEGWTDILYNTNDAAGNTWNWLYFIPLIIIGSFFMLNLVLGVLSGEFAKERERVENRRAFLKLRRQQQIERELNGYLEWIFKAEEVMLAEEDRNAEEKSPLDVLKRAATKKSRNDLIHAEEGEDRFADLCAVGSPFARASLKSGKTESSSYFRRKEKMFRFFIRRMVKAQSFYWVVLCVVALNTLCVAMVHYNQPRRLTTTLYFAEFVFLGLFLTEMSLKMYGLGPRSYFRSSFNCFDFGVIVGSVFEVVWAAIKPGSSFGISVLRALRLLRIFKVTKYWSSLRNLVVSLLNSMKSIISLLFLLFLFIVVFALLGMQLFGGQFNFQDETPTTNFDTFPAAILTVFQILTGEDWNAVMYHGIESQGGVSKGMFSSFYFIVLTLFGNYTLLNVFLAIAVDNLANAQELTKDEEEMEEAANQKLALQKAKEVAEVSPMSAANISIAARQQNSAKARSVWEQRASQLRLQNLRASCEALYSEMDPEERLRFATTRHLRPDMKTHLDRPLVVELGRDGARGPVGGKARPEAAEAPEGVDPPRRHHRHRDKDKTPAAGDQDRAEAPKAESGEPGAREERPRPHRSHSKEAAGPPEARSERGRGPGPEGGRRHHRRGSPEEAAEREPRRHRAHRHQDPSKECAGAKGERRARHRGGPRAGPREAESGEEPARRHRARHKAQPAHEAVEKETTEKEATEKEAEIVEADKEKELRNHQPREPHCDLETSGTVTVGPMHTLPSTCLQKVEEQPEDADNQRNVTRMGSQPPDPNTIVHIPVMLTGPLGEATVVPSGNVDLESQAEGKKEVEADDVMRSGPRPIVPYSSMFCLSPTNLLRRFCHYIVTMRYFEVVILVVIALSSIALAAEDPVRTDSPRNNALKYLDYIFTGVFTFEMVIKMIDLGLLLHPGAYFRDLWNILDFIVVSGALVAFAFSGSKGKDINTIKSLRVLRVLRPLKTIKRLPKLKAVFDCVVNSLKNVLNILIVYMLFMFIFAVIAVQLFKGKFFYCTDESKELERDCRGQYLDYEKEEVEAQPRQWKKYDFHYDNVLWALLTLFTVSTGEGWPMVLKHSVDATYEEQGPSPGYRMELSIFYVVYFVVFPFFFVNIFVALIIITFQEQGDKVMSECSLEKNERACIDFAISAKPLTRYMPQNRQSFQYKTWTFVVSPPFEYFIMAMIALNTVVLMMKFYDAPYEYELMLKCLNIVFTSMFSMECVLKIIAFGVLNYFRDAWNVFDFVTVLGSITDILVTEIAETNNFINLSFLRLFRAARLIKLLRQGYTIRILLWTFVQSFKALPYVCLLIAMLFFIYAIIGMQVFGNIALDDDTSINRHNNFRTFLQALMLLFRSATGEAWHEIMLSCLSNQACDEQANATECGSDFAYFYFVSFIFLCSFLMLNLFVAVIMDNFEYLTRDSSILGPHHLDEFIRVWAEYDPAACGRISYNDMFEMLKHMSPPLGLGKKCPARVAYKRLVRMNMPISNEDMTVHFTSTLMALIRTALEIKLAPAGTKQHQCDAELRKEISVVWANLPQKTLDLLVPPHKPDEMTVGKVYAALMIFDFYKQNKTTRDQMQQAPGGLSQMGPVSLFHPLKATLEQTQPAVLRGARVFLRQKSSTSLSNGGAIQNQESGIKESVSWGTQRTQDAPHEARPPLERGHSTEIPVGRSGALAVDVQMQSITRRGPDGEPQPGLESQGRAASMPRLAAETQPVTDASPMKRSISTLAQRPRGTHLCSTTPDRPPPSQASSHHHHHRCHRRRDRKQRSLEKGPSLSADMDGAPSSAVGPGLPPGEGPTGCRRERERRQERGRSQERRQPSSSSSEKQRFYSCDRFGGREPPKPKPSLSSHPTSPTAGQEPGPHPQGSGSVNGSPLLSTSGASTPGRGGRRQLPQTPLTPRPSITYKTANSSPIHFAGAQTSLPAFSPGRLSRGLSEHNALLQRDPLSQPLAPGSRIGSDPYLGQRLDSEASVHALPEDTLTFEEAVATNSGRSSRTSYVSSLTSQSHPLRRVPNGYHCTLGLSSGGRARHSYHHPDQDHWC
T2 sequence (Q02410 whole entry): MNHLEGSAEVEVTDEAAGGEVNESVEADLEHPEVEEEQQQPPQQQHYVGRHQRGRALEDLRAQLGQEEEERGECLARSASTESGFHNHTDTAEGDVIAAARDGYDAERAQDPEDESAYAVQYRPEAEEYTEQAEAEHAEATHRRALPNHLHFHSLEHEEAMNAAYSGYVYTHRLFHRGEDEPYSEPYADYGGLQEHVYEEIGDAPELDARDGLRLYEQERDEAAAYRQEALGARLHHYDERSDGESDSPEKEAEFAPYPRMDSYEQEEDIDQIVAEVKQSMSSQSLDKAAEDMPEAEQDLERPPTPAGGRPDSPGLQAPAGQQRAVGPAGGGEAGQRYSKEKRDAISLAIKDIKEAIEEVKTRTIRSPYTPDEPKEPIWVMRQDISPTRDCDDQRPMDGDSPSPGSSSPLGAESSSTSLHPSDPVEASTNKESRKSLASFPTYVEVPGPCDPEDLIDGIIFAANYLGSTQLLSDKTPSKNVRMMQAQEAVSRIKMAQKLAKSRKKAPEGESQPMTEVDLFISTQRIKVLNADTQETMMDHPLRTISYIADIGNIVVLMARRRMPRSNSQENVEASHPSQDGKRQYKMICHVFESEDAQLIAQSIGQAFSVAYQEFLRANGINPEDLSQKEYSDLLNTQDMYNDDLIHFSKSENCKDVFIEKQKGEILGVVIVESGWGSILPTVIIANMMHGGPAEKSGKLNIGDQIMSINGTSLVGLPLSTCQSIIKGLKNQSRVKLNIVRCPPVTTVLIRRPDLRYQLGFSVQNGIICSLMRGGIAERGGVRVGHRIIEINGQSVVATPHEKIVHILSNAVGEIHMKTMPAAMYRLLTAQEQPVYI

[2] = target: T2, Voltage-gated N-type calcium channel alpha-1B subunit/Amyloid beta A4 precursor protein-binding family A member 1; assay type: protein assay; remark: listed apart in the source
[3] = target: Induced myeloid leukemia cell differentiation protein Mcl-1 (Homo sapiens, UniProt Q07820); assay type: functional
Chain of Induced myeloid leukemia cell differentiation protein Mcl-1 (Q07820 whole entry): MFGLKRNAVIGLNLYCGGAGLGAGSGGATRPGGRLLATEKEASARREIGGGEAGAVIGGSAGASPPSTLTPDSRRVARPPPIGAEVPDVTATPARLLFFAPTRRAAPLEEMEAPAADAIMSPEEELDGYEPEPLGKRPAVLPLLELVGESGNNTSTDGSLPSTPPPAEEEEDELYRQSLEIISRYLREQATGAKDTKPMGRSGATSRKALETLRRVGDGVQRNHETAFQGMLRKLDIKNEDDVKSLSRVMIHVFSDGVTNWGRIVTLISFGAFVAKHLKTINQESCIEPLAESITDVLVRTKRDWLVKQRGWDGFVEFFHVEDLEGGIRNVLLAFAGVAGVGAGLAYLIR

[4] = HEK-293T cell viability reduction – luminescence, B-cell screen hits, cytotoxicity control for BCR NF-kB inhibitor project, dose response (AID 489021); assay type: functional, cell-based;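 further: HEK-293T cells carrying an NF-kB luciferase reporter; cells exposed to compound for about 14 hours before viability readout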
HEK293 [5] = test: EBV LMP1 TES2 canonical NF-kB signalling blockers – cell-based, HEK293, luciferase, cherry-pick, dose response (AID 588343); assay type: functional; conditions: Homo sapiens
HEK293 [6] = test: inhibition of NOD1-driven NF-kB reporter – cell-based, luminescence, uHTS, primary screen (AID 1578); assay type: functional; conditions: Homo sapiens
[7] = Trypanosoma cruzi growth suppression in host cells – NIH3T3 host cells, beta-gal luminescence, confirmation (AID 2044); assay type: functional, cell-based;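 further: intracellular parasites grown in NIH/3T3 mouse fibroblasts as host cells; luminescent beta-galactosidase reporter signal from transgenic T. cruzi replicating inside host cells; inhibitors lower the luminescence signal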
HEK293 [8] = test: cells; assay type: functional, cell-based; conditions: Homo sapiens
[9] = viability of HCT116 lacking mutant beta-catenin – cell-based, human colon tumor, dose response (AID 1045); assay type: functional;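 further: HCT116 colon tumor cells with beta catenin knocked out; cells exposed to compound for 60 hours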
HEK293 [10] = test: cells; assay type: functional, cell-based; conditions: Homo sapiens; remark: listed apart in the source
HEK293 [11] = test: NOD2 signaling inhibitors in MDP-stimulated cells, cell-based, uHTS, luminescence (AID 2001); assay type: functional; conditions: Homo sapiens
[12] = viability of PTEN-deleted HCT116 cells – cell-based, HCT116 PTEN knockout, dose response (AID 1047); assay type: functional;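 further: HCT116 colon tumor cells with PTEN knocked out; cells exposed to compound for 60 hours before readout; potency for loss of cell viability measured by luminescence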
[13] = NIH3T3 cell viability loss – ATP luminescence, mouse fibroblasts, counter-screen, dose response (AID 2010); assay type: functional, cell-based;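 further: cells exposed to compound for about 90 hours before reading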
Protein RecA = target: T3, Protein RecA (Mycobacterium tuberculosis, UniProt P9WHJ3); test: Fluorescence Cell-Free Homogeneous Dose Retest to Identify Inhibitors of RecA-Intein Splicing Activity. [Related pubchem assays (depositor defined):AID2097, AID2223, AID489010, AID492950]; assay type: functional
T3 sequence (P9WHJ3 whole entry): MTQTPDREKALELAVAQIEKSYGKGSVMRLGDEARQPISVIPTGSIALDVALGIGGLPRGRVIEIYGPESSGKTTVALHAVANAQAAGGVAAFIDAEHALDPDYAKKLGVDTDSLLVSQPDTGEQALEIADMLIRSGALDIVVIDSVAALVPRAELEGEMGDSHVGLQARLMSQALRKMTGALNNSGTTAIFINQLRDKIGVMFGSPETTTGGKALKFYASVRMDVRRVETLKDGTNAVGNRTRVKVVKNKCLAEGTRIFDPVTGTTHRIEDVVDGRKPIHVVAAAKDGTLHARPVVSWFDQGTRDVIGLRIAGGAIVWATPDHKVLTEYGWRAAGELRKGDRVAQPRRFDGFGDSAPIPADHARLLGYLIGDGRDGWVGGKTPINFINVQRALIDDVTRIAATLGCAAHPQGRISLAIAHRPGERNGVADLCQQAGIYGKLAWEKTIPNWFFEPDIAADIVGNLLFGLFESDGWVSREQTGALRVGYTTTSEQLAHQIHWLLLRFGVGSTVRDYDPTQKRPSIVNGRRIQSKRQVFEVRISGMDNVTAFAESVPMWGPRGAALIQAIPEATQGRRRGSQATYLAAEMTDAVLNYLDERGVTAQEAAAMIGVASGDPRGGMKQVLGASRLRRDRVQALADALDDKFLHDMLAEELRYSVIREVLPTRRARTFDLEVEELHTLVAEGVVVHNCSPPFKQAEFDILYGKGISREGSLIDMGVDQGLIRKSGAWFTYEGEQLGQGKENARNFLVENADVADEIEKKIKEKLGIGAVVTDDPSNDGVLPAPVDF

[14] = target: T4, Replicative DNA helicase DnaB (Mycobacterium tuberculosis, UniProt P9WMR3); test: DnaB intein splicing inhibitors, dose response, biochemical, cell-free fluorescence (AID 449749); assay type: functional
T4 sequence (P9WMR3 whole entry): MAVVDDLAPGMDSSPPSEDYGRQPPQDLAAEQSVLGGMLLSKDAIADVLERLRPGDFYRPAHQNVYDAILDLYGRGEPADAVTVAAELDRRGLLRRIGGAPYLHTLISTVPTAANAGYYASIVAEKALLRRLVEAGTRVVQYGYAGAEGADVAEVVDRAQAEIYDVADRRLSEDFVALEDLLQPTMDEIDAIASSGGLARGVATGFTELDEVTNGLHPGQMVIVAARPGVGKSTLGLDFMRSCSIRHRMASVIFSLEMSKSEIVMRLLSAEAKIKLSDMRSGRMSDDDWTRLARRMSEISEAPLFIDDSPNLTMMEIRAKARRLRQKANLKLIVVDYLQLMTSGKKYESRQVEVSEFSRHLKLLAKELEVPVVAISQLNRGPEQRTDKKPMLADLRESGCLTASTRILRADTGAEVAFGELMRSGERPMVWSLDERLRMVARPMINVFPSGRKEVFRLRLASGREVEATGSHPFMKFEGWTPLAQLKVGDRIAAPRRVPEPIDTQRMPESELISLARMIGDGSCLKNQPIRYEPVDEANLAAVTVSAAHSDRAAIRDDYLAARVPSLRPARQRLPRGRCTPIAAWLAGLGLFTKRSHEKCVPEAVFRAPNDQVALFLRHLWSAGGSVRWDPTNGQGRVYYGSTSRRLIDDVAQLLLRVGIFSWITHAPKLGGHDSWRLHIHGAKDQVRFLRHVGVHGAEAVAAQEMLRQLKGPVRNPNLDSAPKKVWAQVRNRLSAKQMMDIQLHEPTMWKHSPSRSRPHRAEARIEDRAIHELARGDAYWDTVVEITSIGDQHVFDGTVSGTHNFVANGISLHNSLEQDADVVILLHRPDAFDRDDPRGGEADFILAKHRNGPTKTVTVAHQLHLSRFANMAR

[15] = target: T5, Polyadenylate-binding protein 1 (Homo sapiens, UniProt P11940); test: MLLE domain peptide-binding blockers, IC50 – biochemical, fluorescence polarization, FITC-PAM2 peptide, dose response (AID 602259); assay type: functional; conditions: read-out: IC50_Mean
T5 sequence (P11940 whole entry, the tested form may be a part): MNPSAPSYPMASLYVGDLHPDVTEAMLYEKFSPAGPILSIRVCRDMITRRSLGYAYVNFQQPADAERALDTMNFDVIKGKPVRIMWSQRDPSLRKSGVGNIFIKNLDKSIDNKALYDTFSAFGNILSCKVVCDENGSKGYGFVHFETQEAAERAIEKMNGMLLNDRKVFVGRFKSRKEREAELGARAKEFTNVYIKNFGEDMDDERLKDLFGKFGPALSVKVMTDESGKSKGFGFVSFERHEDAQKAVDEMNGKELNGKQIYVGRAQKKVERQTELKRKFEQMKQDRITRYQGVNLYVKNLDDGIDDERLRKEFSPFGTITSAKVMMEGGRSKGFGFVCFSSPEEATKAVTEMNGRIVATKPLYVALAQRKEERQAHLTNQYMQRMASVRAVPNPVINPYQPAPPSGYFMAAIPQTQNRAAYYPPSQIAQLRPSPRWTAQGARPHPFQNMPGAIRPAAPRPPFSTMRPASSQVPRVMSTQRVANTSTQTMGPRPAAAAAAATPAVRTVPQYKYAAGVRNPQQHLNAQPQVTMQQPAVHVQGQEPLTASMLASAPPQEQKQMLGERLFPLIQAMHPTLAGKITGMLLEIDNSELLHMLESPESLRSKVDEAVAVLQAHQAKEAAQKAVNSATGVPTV

[16] = target: T5, Polyadenylate-binding protein 1; test: MLLE binding blockers, Cy5 peptide tracer – biochemical, fluorescence polarization, Cy5-PAM2 peptide, secondary, miRNA deadenylation inhibitor project, dose response (AID 602260); assay type: functional; conditions: read-out: IC50_Mean
[17] = target: FAD-linked sulfhydryl oxidase ALR (Homo sapiens, UniProt P55789); test: ALR-catalysed DTT oxidation blockers – biochemical, H2O2 detection, luminescence, cherry-pick, dose response (AID 493248)
Chain of FAD-linked sulfhydryl oxidase ALR (P55789 whole entry): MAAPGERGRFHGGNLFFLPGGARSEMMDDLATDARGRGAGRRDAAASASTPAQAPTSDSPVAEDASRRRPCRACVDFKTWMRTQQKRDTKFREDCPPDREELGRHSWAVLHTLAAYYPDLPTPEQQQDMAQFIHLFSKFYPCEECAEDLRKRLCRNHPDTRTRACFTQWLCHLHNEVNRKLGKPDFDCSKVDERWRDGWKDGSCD

Large T antigen = Large T antigen (Simian virus 40, UniProt P03070); assay type: functional, Betapolyomavirus macacae;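 further: Confirmatory-stage PubChem screen for compounds that inhibit SV40 T antigen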
Chain of Large T antigen (P03070 whole entry): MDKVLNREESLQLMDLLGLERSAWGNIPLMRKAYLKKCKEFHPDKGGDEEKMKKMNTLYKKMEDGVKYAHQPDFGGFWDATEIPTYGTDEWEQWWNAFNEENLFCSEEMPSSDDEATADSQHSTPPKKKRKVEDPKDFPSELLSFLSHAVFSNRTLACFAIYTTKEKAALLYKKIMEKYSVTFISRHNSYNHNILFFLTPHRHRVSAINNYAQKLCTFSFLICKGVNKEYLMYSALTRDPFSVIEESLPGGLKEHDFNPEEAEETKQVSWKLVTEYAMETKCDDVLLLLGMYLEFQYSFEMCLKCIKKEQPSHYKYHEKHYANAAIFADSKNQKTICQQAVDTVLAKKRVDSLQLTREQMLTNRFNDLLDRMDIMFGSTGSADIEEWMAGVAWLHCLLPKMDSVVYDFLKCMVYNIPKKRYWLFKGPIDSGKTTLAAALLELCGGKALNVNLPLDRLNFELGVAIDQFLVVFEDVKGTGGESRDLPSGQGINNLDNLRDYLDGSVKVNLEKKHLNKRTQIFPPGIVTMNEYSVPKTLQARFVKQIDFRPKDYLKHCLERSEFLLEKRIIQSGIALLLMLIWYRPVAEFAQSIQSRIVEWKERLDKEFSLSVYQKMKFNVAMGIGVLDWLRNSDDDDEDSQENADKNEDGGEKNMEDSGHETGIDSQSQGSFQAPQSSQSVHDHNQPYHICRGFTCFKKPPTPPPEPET

COc1ccc(/C=N/NC(=O)c2cccc(NC(=O)c3ccccc3Cl)c2)cc1OC
IC50 (Aminopeptidase N): 53.9 µM (active)

COc1ccc(/C=C(\CC(=O)O)c2nc3ccccc3o2)cc1
IC50 (Aminopeptidase N): 81.5 µM (active)

CC(C)CC(NC(=O)C(COCc1ccccc1)NC(=O)OC(C)(C)C)C(=O)NN (configuration not stated) (Boc-Ser(Bn)-Leu-NHNH2; configuration not given here)
IC50 (Aminopeptidase N): 81.4 µM (active)

O=[N+]([O-])c1ccc(-c2cc(-c3ccc(Cl)cc3)n[nH]2)cc1
IC50 [1]: > 56.8 µM (not active)
IC50 [2]: > 50 µM (inactive)
IC50 [3]: 2.5 µM (active)

COc1ccc(/C=C2/SC(=S)N(CCC(=O)O)C2=O)cc1
IC50 [4]: > 80 µM (inactive)

Cc1ccc2nc(O)c(C3=NN(C(=O)CCC(=O)O)C(c4cccs4)C3)c(-c3ccccc3)c2c1 (configuration not stated)
IC50 (Aminopeptidase N): 68.9 µM (active)

CC(=O)Nc1nc(C)c(-c2csc(Nc3cccc([N+](=O)[O-])c3)n2)s1
AC50 (HEK293 [5]): 2.16 µM (active)
EC50 (HEK293 [6]): 9.4 µM (active)
EC50 [7]: 0.995 µM (active)
IC50 (HEK293 [8]): 17.1 µM (active)
EC50 [9]: 24.8 µM (active)
IC50 (HEK293 [10]): 11.1 µM (active)
IC50 (HEK293 [11]): 8.61 µM (active)
EC50 [12]: 18.2 µM (active)
EC50 [13]: 14.1 µM (active)

N#Cc1c(C#N)c(O)c2ccccc2c1O
EC50 (Protein RecA): 1.55 µM (active)
IC50 [1]: 3.83 µM (active)
IC50 [2]: 25.8 µM (active)
AC50 [14]: > 380 µM (inactive)

N#CC1=C(N)N=C(S)C(C(N)=O)C1c1ccccc1F (configuration not stated)
IC50 [1]: 13.6 µM (active)
IC50 [2]: > 50 µM (inactive)
IC50 [15]: > 66 µM (inactive)
IC50 [16]: > 66 µM (inactive)
AC50 [17]: 8.62 µM (active)
IC50 (Large T antigen): 60 µM (active)

— ChEMBL document CHEMBL1201862, “PubChem BioAssay data set” (2004)
